Assay results taken from patent US8679499B2, “Methods for relieving asthma-associated airway hyperresponsiveness” (The Board of Trustees of the Leland Stanford Junior …, priority 2004, dated 2014).
Entries after “also recorded” stand apart in the source; their conditions may differ.

Assays:
NKT cells [1] = assay: Serum IgE and IgG2c before and 10 days after a single i.p. glycolipid injection; type: in vivo, C57BL/6 mice
Method: In a separate experiment, mean serum IgE levels of groups of three C57BL/6 mice were measured before or 10 days after a single i.p. injection of 0.1 μg α Galcer alone, 100 μg β Galcer alone, or 100 μg of β Galcer injected 1 hour before 0.1 μg α Galcer. […] The bars show means of triplicate determinations, and the brackets show standard deviations. […] We conclude that β Galcer blocks the increase in serum IgE levels induced by α Galcer. No significant change is seen with the control IgG2c expression.

NKT cells [2] = assay: Serum IFN-γ and IL-4 (ELISA) after i.p. glycolipid injection; NKT cell activation in vivo; design: species or system C57BL/6 mice; conditions: 6 hours
Method: The i.p. injection of a galactosyl ceramide (obtained from Brigham Young University, Provo, Utah) into C57BL/6 mice increases serum levels of IL-4 and IFN-γ by selectively activating NKT cells. Injection of C12 β galactosyl ceramide (Avanti Lipids, Inc.) i.p. antagonizes the ability of α galactosyl ceramide to raise the levels of IL-4, interferon-gamma, and IgE in the serum of these mice.
Male C57BL/6 mice of about 8 weeks of age were given either 100 μg of β galactosyl ceramide (β Galcer) i.p., 0.1 μg of α galactosyl ceramide (α Galcer) i.p., 100 μg β Galcer i.p. either 1 hour before or at the same time as 0.1 μg α Galcer i.p., or no treatment. β-Galcer was obtained from Avanti Lipids Inc. Glycolipids were in aqueous solutions with PBS. Cytokine levels were determined by ELISA as previously described by Zeng et al. (2003), supra.

[3] = test system: mice with α-GalCer induced airway hyperresponsiveness (AHR); assay: α-GalCer induced airway hyperresponsiveness (AHR), methacholine whole body plethysmograph; type: in vivo, BALB/c mice
Method: (§1) In murine model of asthma, β-GalCer was administered to OVA-immunized BALB/c mice, or mice with α-GalCer induced airway hyperresponsiveness (AHR).
(§2) Immunizations. BALB/c mice were primed in the footpads with OVA (100 μg/mouse) adsorbed to 200 μg of alum (Al[OH]3). Mice were challenged with 50 μg OVA in 50 μl NaCl 0.9% intranasally 7, 8, and 9 days later. One day after the last intranasal challenge with OVA, airway hyperreactivity was measured from conscious mice after inhalation of increasing concentrations of methacholine in a whole body plethysmograph Immunization with α-GalCer was performed as described.
(§3) Measurement of Airway Responsiveness. Airway responsiveness was assessed by methacholine-induced airflow obstruction from conscious mice placed in a whole body plethysmograph (model PLY 3211, Buxco Electronics Inc., Troy, N.Y.). Pulmonary airflow obstruction was measured by Penh using the following formula:
(§4) [formula] where Penh=enhanced pause (dimensionless), Te=expiratory time, RT=relaxation time, PEF=peak expiratory flow (mI/s), and PIF=peak inspiratory flow (mI/s) (Hamelmann et al. (1997) Am. J. Respir. Crit. Care Med. 156:766-75. Enhanced pause (Penh), minute volume, tidal volume, and breathing frequency were obtained from chamber, pressure, measured with a transducer (model TRD5100) connected to preamplifier modules (model MAX2270) and analyzed by system XA software (model SFT 1810). Measurements of methacholine responsiveness were obtained by exposing mice for 2 min to NaCI 0.9%
(§5) Collection of BAL Fluid and Lung Histology. Animals were injected i.p. with a lethal dose of phenobarbital (450 mg/kg). The trachea was cannulated, and the lung was then lavaged with 0.8 ml of PBS three times, and the fluid pooled. Cells in the lavage fluid were counted using a hemocytometer and BAL cell differentials were determined on slide preparations stained with Hansel Stain (Lide Laboratories, Florissant, Mo.). At least 200 cells were differentiated by light microscopy based on conventional morphologic criteria. In some animals, no BAL was performed but lungs were removed, washed with PBS, fixed in 10% formalin and stained with hematoxylin and eosin.
A minimum of 4 mice per group were used.

[4] = test system: OVA-immunized BALB/c mice; assay: OVA/alum induced AHR, murine model of asthma; type: in vivo
Method: as §1, §2
Cytokine ELISA. ELISAS were performed as previously described Macaulay et al. (1998) J. Immunol. 160:1694-1700. The antibody pairs used were as follows, listed by capture/biotinylated detection: IL-4, BVD4-1D11/BVD6-24G2; IFN-γ, R4-6A2/XMG1.2. Recombinant cytokine were used as standards, with curves generated in 1:2 dilutions from […] to 39 pg/ml for IL-4, and 20-2, 156 ng/ml for IFN-γ.
Measurement of anti-OVA antibody isotypes. Mice were bled at the time of sacrifice and OVA-specific antibody was measured using a modified antigen-specific ELISA. For measurement of OVA specific IgG, plates were coated overnight with 5 μg/ml OVA. After washing and blocking, serial diluted sera were added to the plates. Following overnight incubation, the plates were developed using HRPO-conjugated goat anti-IgG subclass-specific antibodies (Southern Biotechnology Associates, Birmingham, Ala.). After additional washing, OPD substrate was added, the plates developed and the OD determined at 492 nm Anti-OVA IgG1 mAb 6C1 and anti-OVA IgG2a mAb 3A11 were used as standards for quantitation of each IgG subclass. Determination of OVA-specific IgE was performed by ELISA, using rat anti-mouse IgE mAb EM95 (5.0 μg/ml) to coat plates. After the samples were applied and incubated overnight, plates were washed and biotinylated OVA (10 μg/ml) was added. Two hours later, plates were washed and HRPO-conjugated streptavidin (Southern Biotechnology Associates) was added. Plates were developed with OPD substrate and the OD determined at 492 nm Sera from mice hyperimmunized with OVA in alum was quantitated for IgE and used as standard for the OVA-specific IgE ELISA.
as §3, §4, §5
(a) AHR was measured on day 10. C12-β-GalCer was administered i.v. (100 μg) 1 day prior to OVA/alum sensitization and 6 hours prior to each i.n. challenge (100 μg). […]

NZBxNZW mouse = assay: Murine model for systemic lupus erythematosus, proteinuria; type: in vivo; conditions: high dose (100 μg/mouse) injected twice weekly, at 38 weeks; PBS control approximately 30%
Method: In a murine model for systemic lupus erythematosus, the NZBxNZW mouse, animals were injected twice weekly with one of: PBS, 50 μg/mouse β-galactosyl ceramide, or 100 μg/mouse β-galactosyl ceramide. The animals were analyzed for proteinuria, which is an indication of the development of lupus. In the control group of 15 mice, at 38 weeks, approximately 30% of the mice were without proteinuria, while approximately 80% of the mice treated with the high dose of β-galactosyl ceramide were without proteinuria.

NKT cells [5] = assay: Oral administration of β-galactosyl ceramide: serum cytokines and liver NKT cell markers; type: in vivo, mouse
Method: Doses of β-galactosyl ceramide ranging from 100-800 μg/mouse were administered orally. Cytokine levels of IFN-γ and IL-4 were determined by ELISA as previously described by Zeng et al. (2003), supra. from serum levels.

[6] = glycolipid alone i.p. (100 μg β Galcer or 0.1 μg α Galcer), untreated about 50 pg/ml
[7] = C12-β-GalCer treated group versus OVA/alum positive control
[8] = C12-β-GalCer treated group, four days in culture with 62.5 μg/ml OVA

CCCCCCCCCCCCCCCCCCCCCCCCCC(=O)N[C@@H](CO[C@H]1O[C@H](CO)[C@H](O)[C@H](O)[C@H]1O)[C@H](O)[C@H](O)CCCCCCCCCCCCCC [α Galcer, α galactosyl ceramide, reference compound]
rise of serum IgE level (NKT cells [1]; 0.1 μg α Galcer alone i.p., 10 days after versus before): about three fold
serum IL-4 level (NKT cells [2]; 0.1 μg α Galcer alone i.p.): 1000 pg/mL
increase of serum IL-4 level (NKT cells [2]; 0.1 μg α Galcer alone i.p., versus untreated): about 10 fold
serum IFN-γ level (NKT cells [2]; [6]): increased the level more than two fold

CCCCCCCCCCCCC/C=C/[C@@H](O)[C@H](CO[C@@H]1O[C@H](CO)[C@H](O)[C@H](O)[C@H]1O)NC(=O)CCCCCCCCCCC [β Galcer, C12 β galactosyl ceramide]
synthesis of IgG2c (control) (NKT cells [1]; treatment with β-Galcer, FIG. 1D): not affected
serum IL-4 level (NKT cells [2]; 100 μg β Galcer alone i.p., untreated about 100 pg/ml): did not increase the level
serum IL-4 level (NKT cells [2]; 100 μg β Galcer and 0.1 μg α Galcer given at the same time): about 250 pg/ml
serum IFN-γ level (NKT cells [2]; 100 μg β Galcer i.p. 1 hour before 0.1 μg α Galcer i.p.): below 40 pg/ml
serum IFN-γ level (NKT cells [2]; 100 μg β Galcer i.p. at the same time as 0.1 μg α Galcer i.p.): below 40 pg/ml
increase of serum IL-4 induced by α Galcer (NKT cells [2]; 100 μg β Galcer one hour before 0.1 μg α Galcer): completely blocked
serum IFN-γ level (NKT cells [2]; [6]): did not increase the level
AHR ([3]; 50 μg i.n. and i.v. 2 hours prior to 0.5 μg α-GalCer i.n., 24 hours AHR): greatly reduces 24 hours AHR
AHR ([3]; 100 μg C12-β-GalCer i.v. 2 hours prior to 1.5 μg α-GalCer i.n., AHR at 24 hours): greatly reduces AHR; also recorded: blocks α-GalCer induced AHR
AHR induced by the agent itself ([3]; C12-β-GalCer administered i.n.): induces mild AHR
AHR induced by the agent itself ([3]; C12-β-GalCer i.v. alone): does not induce any AHR
peri-bronchiolar eosinophilic inflammation (histology) ([3]; C12-β-GalCer treatment): reduced peri-bronchiolar eosinophilic inflammation
serum IFN-γ ([3]; following α-GalCer induced AHR): more serum IFN-γ
lung inflammation (histology) ([3]; i.v. injection of C12-β-GalCer by itself): does not result in any lung inflammation
AHR ([4]; C12-β-GalCer 100 μg i.v. 1 day prior to OVA/alum sensitization and 6 hours prior to each i.n. challenge, AHR day 10): reduce AHR; also recorded: reduces OVA/alum induced AHR
eosinophilic infiltration of the lungs (histology) [4, 7]: reduced but present
neutrophilia in the lungs (histology) [4, 7]: possibly more neutrophilia
serum OVA-specific IgE ([4]; C12-β-GalCer treated group, 100 μg i.v.): reduced
IFN-γ produced by lymph node cells [4, 8]: slightly more IFN-γ
IL-4 produced by lymph node cells [4, 8]: less IL-4
mice without proteinuria (NZBxNZW mouse): approximately 80%
staining for NKT cell markers in the liver (NKT cells [5]; oral administration, FIG. 5): decreased staining for NKT cell markers in the liver
serum IL-4 level (NKT cells [5]; oral, 100-800 μg/mouse): A similar pattern was observed
serum IFN-γ level (NKT cells [5]; oral, 100-800 μg/mouse, 24 hours after administration): no increase in serum levels at any dose
